# Measured values published in patent publication US11911356B2, “Regulation of mutant TERT by BRAF V600E/map kinase pathway through FOS/GABP in human cancer” (THE JOHNS HOPKINS UNIVERSITY, priority 2017, dated 2024).
# Assays:
# TERT expression = TERT expression by qRT-PCR in human cancer cell lines treated with inhibitors; assay type: cell-based; details: for TERT expression: 0.5 uM PLX4032, 24 hours
# Experimental: (§1) FIG. 2A-2G. BRAF V600E/MAPK pathway regulated TERT expression. (FIG. 2A) TERT expression was analyzed by qRT-PCR in cells treated with 0.5 uM PLX4032 or 0.2 uM AZD6244 for 24 hours (upper panel). The corresponding levels of phosphorylated ERK (p-ERK), total ERK (t-ERK), and beta-actin were detected by Western blotting (lower panel). The relative TERT mRNA expression levels were normalized to the DMSO control group. (FIG. 2B) Luciferase reporting assay of TERT promoter activities in K1 cells treated with DMSO or PLX4032 (0.5 uM). (FIG. 2C, 2D) Specific shRNA against BRAF were used to knock down BRAF in thyroid cancer cell lines BCPAP and K1 and melanoma cell line A375. Scramble shRNA was used as control. Cells were then subjected to Western blotting (FIG. 2C) and qRT-PCR (FIG. 2D). (FIG. 2E) Sequencing of the BRAF exon-15 in the parental and heterozygous BRAF-V600E knock-in SW48 cells. BRAF V600E was knocked in on one allele of BRAF by rAAV technology through homologous recombination and Cre recombinase of the Neo cassette. (FIG. 2F) Western blotting analyses of phosphorylation of ERK (p-ERK), total ERK (t-ERK), BRAF, and beta-actin in the parental and BRAF-V600E knock-in SW48 cells. (FIG. 2G) TERT promoter luciferase reporter assay in SW48 cells with/without BRAF V600E knock-in. **P<0.01, ***P<0.001, by 2-tailed Student's t test. P values are for the comparison of the indicated condition with DMSO (FIG. 2B), scramble (FIG. 2D), or BRAF-WT groups (FIG. 2G). All the values represent the average standard deviation (SD) of triplicate samples from a typical experiment. All the experiments were performed three times with similar results.
# FIG. 3A-3C. MYC regulated TERT expression in a TERT promoter mutation-independent manner. (FIG. 3A) The four indicated cancer cell lines harboring BRAF V600E mutation were treated with 0.5 uM PLX4032 and/or 10 nM MYC-specific siRNA (siMYC) for 24 hours, which were then subjected to Western blotting (upper panel) and qRT-PCR (lower panel). The relative TERT mRNA expression was normalized to the control group. (FIG. 3B, 3C) Parental and BRAF V600E knock-in SW48 cells were treated with control siRNA (siControl) or MYC-specific siRNA (siMYC, 10 nM) for 48 h, followed by Western blotting (FIG. 3B) and luciferase reporter assays (FIG. 3C). *P<0.05, **P<0.01, ***P<0.001, by 2-tailed Student's t test. n.s., not significant. All the values represent the average standard deviation (SD) of triplicate samples from a typical experiment. Similar results were obtained in two additional independent experiments.
# FIG. 9A-9B. Summarized effects of PLX4032 (FIG. 9A) and AZD6244 (FIG. 9B) on TERT mRNA expression. Each bar represents the average+SD of the cells with the same genotypes as follows: BRAF-mut and TERT-mut cell lines: BCPAP, K1, OCUT1, A375, and M14; BRAF-mut and TERT-wt cell lines: SK-MEL-1, SK-MEL-3, and RKO; BRAF-wt and TERT-mut cell lines: TPC1, KAT18, C643, CHL-1, SK-MEL-2, and Mewo; BRAF-wt and TERT-wt cell lines: FB1, WRO, and HTORI3. Compared with the corresponding control of DMSO, **P<0.01, ***P<0.001, by independent t-test.
# The BRAF V600E-specific inhibitor PLX4032 (#S1267) and the MEK1 inhibitor AZD6244 (#S1008) were purchased from Selleck Chemicals (Houston, TX), dissolved in DMSO with a stock concentration of 10 mM and stored at −20° C. PLX4032 and AZD6244 were used to treat cells for 24 hours at 0.5 μM and 0.2 μM, respectively, where indicated in the manuscript. DMSO was used as the vehicle control.
# Total RNA was extracted from cultured cells using the TRIzol reagent (#15596-018; Ambion, Life Technologies, Carlsbad, CA) and reverse-transcribed to cDNA using the SuperScript III First-Strand Synthesis System (#18080-051; Invitrogen, Life Technologies, Carlsbad, CA). Gene expression was analyzed in triplicate using FastStart Universal SYBR Green Master with ROX (#04913850001; Roche Applied Science, Indianapolis, IN) on the Applied Biosystems 7900HT Fast Real-Time PCR System. […]
# ERK phosphorylation = test: Western blotting of phosphorylated ERK in inhibitor-treated cells; assay type: cell-based, human; details: 0.5 uM PLX4032, 24 hours
# Experimental: as §1, with “results. […]” for “results.”
# Cells were lysed in the RIPA buffer (#sc-24948; Santa Cruz Biotechnology, Santa Cruz, CA) with protease inhibitor cocktail (#P8340; Sigma-Aldrich) and phosphatase inhibitor cocktail (#P0044; Sigma-Aldrich) and Western blotting analysis was performed as we previously described^54. […] Signals were detected by SuperSignal™ West Pico PLUS Chemiluminescent Substrate (#34579; Thermo Fisher Scientific). […]
# [1] = tested on: MEK and ERK phosphorylation; details: wild-type BRAF cells; previous finding (refs 28, 29); cited from earlier work
compound,measurement,setting,value
CCCS(=O)(=O)Nc1ccc(F)c(C(=O)c2c[nH]c3ncc(-c4ccc(Cl)cc4)cc23)c1F [PLX4032],TERT expression,"TERT expression; RKO and SK-MEL-3 cells, wild-type TERT promoter",moderate level
same,TERT expression,TERT expression; all the cells harboring BRAF mutation (FIG. 3A),decreased TERT expression
same,TERT expression after siRNA knockdown of MYC,"TERT expression; cells harboring TERT promoter mutations, 0.5 uM PLX4032 with 10 nM siMYC, 24 hours",could further inhibit TERT expression
same,TERT expression,TERT expression; cells harboring both BRAF V600E and TERT promoter mutations,dramatically inhibited TERT expression
same,TERT expression,TERT expression; cells harboring the wild-type TERT promoter,limited effect
same,TERT expression,TERT expression; cells harboring wild-type BRAF,no inhibitory effect
same,TERT expression,"TERT expression; wild-type BRAF cell lines, especially TERT mutant cells (KAT18, C643 and CHL-1)",increase in TERT expression
same,ERK phosphorylation,ERK phosphorylation; cells harboring BRAF V600E mutation,specifically suppressed ERK phosphorylation
same,ERK phosphorylation,ERK phosphorylation; several wild-type BRAF cell lines,increase in ERK phosphorylation
same,MEK and ERK phosphorylation,[1],induced MEK and ERK phosphorylation
